Patent publication US20240059738A1, “SWITCHING PEPTIDE AND MULTIPLEX IMMUNOASSAY METHOD USING SAME” (OPTOLANE TECHNOLOGIES INC., priority 2021, published 2024)

Experiments:
Anti-CRP antibody(r) = assay: Antigen-induced release of fluorescently labeled peptide from immobilized antibody (Table 2), CRP antigen; type: binding; conditions: anti-CRP antibody (rabbit)
[1] = test system: anti-HRP antibody from a rabbit; assay: One-step immunoassay with varying HRP concentration (FIGS. 7A-7C); type: binding; conditions: HRP 0.3 to 100 μM; for Kd: estimated, read-out: Equilibrium dissociation constants
Text: FIG. 7A is a schematic diagram for explaining an immunoassay method using fluorescently labeled peptide compounds of Example 1, and FIGS. 7B and 7C are graphs illustrating the fluorescence intensities in a solution and at a bottom of the microplate depending on a concentration of the antigen measured by the immunoassay method illustrated in FIG. 7A. In this experiment, an anti-HRP antibody from a rabbit immobilized on a microplate was used as the binding antibody and HRP was used as the antigen.

[2] = Net charge of switching peptides at pH 6.0 to 8.0; type: physicochemical
Procedure: (§1) Regarding the antibody binding properties of the switching peptides at pH 6.0 to 8.0, a net charge of H1 and L2 peptides decreased to 0.5 at pH 6.0 to 7.0 due to a histidine residue with a pKa value of 6.02. In addition, the net charge of the H2 and L2 peptides decreased to 0.5 at pH 7.0 to 8.0 due to a cysteine residue with a pKa value of 8.18. […] Therefore, the immunoassay was performed by selecting an L1 peptide having specific dissociation from hepatitis B surface antigen-antibody binding and stability within a pH range of human serum immunoassay.

Anti-HRP antibody(r) = assay: Antigen-induced release of fluorescently labeled peptide from immobilized antibody (Table 2), HRP antigen; type: binding, rabbit; conditions: for remaining fluorescence intensity at plate bottom after antigen binding (% of before): anti-HRP antibodies from rabbits; for Bottom (B) of microplate Change (%) / fluorescence intensity Bottom (B) of microplate After antigen binding / fluorescence intensity Bottom (B) of microplate Before antigen binding / fluorescence intensity In solution (S) After antigen binding / fluorescence intensity In solution (S) Before antigen binding: anti-HRP antibody (rabbit), HRP
[3] = test system: rabbit anti-HRP antibodies (Fab region); assay: Papain treatment of immobilized antibody with bound fluorescently labeled switching peptide (FIG. 6B); type: binding; conditions: after papain treatment compared to before
Text: FIG. 6A is a schematic diagram illustrating states before and after treatment of the antibody to which the four types of peptides of Example 1 were bound, respectively, with papain, which is a protease, and FIG. 6B is graphs illustrating a fluorescence intensity measured at a bottom (B) of the microplate and in a solution (S) after the papain treatment. In the case of this experiment, after immobilization of the antibodies (rabbit anti-HRP antibodies) on the microplate, binding between the antibody and the switching peptide was induced by treatment with a fluorescently labeled switching peptide, the unbound switching peptide was removed, and then the Fab region was hydrolyzed from the immobilized antibodies by adding papain, which is a protease.
Referring to FIG. 6A, the fluorescence at the bottom (B) of the microplate is expected to decrease after the papain reaction because the fluorescently labeled switching peptides are bound to the Fab region of antibodies, and the fluorescence in the solution is expected to increase because the Fab region to which the switching peptide is bound is hydrolyzed and dissolved into the solution. This prediction is proven to be true from the graphs of FIG. 6B.

L2 peptide = assay: FRET interaction between H1 and L2 peptides on microplate; type: binding; conditions: with increasing concentration of H1 peptide; FAM/TAMRA labels
Text: (§2) FIG. 4A is diagrams illustrating a method for confirming a specific interaction between L1 and H2 peptides and a specific interaction between L2 and H1 peptides and the measurement results thereof, and FIG. 4B is diagrams for explaining a specific interaction between L1 and H2 peptides and a specific interaction between L2 and H1 peptides analyzed using PyMOL software. Here, at the ends of the L1 and L2 peptides, a first fluorescent label, FAM (λex=488 nm, λem=532 nm) was modified, and at the ends of the H1 and H2 peptides, a second fluorescent label, TAMRA λex=532 nm, λem=570 nm) was modified. Meanwhile, the first peptide (L1 or L2) was immobilized on a parylene-H-coated microplate through a covalent bond between a formyl group of parylene-H and a primary amine group of a lysine residue in the peptide, and the second peptide (H2 or H1) was incubated with the immobilized first peptide (L1 or L2) to allow specific interactions between them.

Anti-HBsAg antibody(g) = assay: Antigen-induced release of fluorescently labeled peptide from immobilized antibody (Table 2), HBsAg antigen; type: binding, goat; conditions: for fluorescence intensity remaining at bottom of plate after antigen (% of before): anti-HBsAg antibodies from goats; for Bottom (B) of microplate Change (%) / fluorescence intensity Bottom (B) of microplate After antigen binding / fluorescence intensity Bottom (B) of microplate Before antigen binding / fluorescence intensity In solution (S) After antigen binding / fluorescence intensity In solution (S) Before antigen binding: anti-HBsAg antibody (goat), HBsAg
Anti-hCG antibody(m) = assay: Antigen-induced release of fluorescently labeled peptide from immobilized antibody (Table 2), hCG antigen; type: binding; conditions: anti-hCG antibody (mouse)
[4] = test system: hepatitis B surface antigen-antibody; assay: Antibody binding properties (fluorescence signal) of switching peptides at pH 6.0 to 8.0
Procedure: as §1

H2 peptide = assay: FRET interaction between L1 and H2 peptides on microplate; type: binding; conditions: with increasing concentration of L1 peptide; FAM/TAMRA labels
Text: as §2
Referring to FIG. 4A, the interaction between the L1 and H2 peptides was observed by changing the concentration of the L1 peptide, and the FRET intensity increased with increasing the concentration of the L1 peptide.

HRP, CRP, HBsAg, and hCG = test system: HRP, CRP, HBsAg, and hCG
Procedure: After immobilizing the hepatitis B surface antigen (HBsAg)-antibody detected using the immunoassay of the peptide compounds of Example 1 on a microplate, L1 peptide was added, and 0.04 to 30 μg/ml of the hepatitis B surface antigen was treated.

[5] = pH 6.0 to 7.0, histidine residue pKa 6.02
[6] = pH 7.0 to 8.0, cysteine residue pKa 8.18

| Sequence | Bottom (B) of microplate Change (%) (Anti-CRP antibody(r)) | In solution (S) Change (%) (Anti-CRP antibody(r)) | fluorescence intensity Bottom (B) of microplate After antigen binding (Anti-CRP antibody(r)) | fluorescence intensity Bottom (B) of microplate Before antigen binding (Anti-CRP antibody(r)) | fluorescence intensity In solution (S) After antigen binding (Anti-CRP antibody(r)) | fluorescence intensity In solution (S) Before antigen binding (Anti-CRP antibody(r)) | fluorescence intensity in the solution depending on the concentration of the antigen (HRP) [1] | Kd [1] [nM] | remaining fluorescence intensity at plate bottom after antigen binding (% of before) (Anti-HRP antibody(r)) [%] | Bottom (B) of microplate Change (%) (Anti-HRP antibody(r)) | fluorescence intensity Bottom (B) of microplate After antigen binding (Anti-HRP antibody(r)) | fluorescence intensity Bottom (B) of microplate Before antigen binding (Anti-HRP antibody(r)) | fluorescence intensity In solution (S) After antigen binding (Anti-HRP antibody(r)) | fluorescence intensity In solution (S) Before antigen binding (Anti-HRP antibody(r)) | decrease of fluorescence intensity at the bottom of the microplate [3] [%] | increase of fluorescence intensity in the solution [3] | fluorescence intensity remaining at bottom of plate after antigen (% of before) (Anti-HBsAg antibody(g)) [%] | Bottom (B) of microplate Change (%) (Anti-HBsAg antibody(g)) | fluorescence intensity Bottom (B) of microplate After antigen binding (Anti-HBsAg antibody(g)) | fluorescence intensity Bottom (B) of microplate Before antigen binding (Anti-HBsAg antibody(g)) | further results |
| --- | --- | --- | --- | --- | --- | --- | --- | --- | --- | --- | --- | --- | --- | --- | --- | --- | --- | --- | --- | --- | --- |
| SYWIHWVKQRPGQGLEWIGE [H1, SYWIH WVKQR PGQGL EWIGE] | −26.8 | +152% | 3595 | 4912 | 5659 | 2242 | increase | 1650 | 12.3 | −87.7 | 1451 | 11840 | 21965 | 2596 | 84.3 | 2,184% | 41.1 | −58.9 | 4618 | 11225 | net charge [2, 5]: 0.5; FRET intensity (L2 peptide): increase; fluorescence intensity In solution (S) After antigen binding (Anti-HBsAg antibody(g)): 11453; Bottom (B) of microplate Change (%) (Anti-hCG antibody(m)): −65.6%; In solution (S) Change (%) (Anti-hCG antibody(m)): +206%; fluorescence intensity Bottom (B) of microplate After antigen binding (Anti-hCG antibody(m)): 1940; fluorescence intensity Bottom (B) of microplate Before antigen binding (Anti-hCG antibody(m)): 5646; fluorescence intensity In solution (S) After antigen binding (Anti-hCG antibody(m)): 3921; fluorescence intensity In solution (S) Before antigen binding (Anti-hCG antibody(m)): 1281 |
| TYLEWYPQKPGQSPKLLIYK [L1, TYLEW YPQKP GQSPK LLIYK] | −48.6 | +778% | 3456 | 6719 | 6505 | 741 | increase | 3290 | 12.7 | −87.3 | 1990 | 15608 | 12280 | 2687 | 84.8 | 1,032% | 48.7 | −51.3 | 5388 | 11062 | fluorescence signal in pH range required for immunoassay of HBsAg in human serum [4]: almost the same fluorescence signal; FRET intensity (H2 peptide): increased; selectivity among the four antigens (HRP, CRP, HBsAg, and hCG): highest selectivity; fluorescence intensity In solution (S) After antigen binding (Anti-HBsAg antibody(g)): 20501; fluorescence intensity In solution (S) Before antigen binding (Anti-HBsAg antibody(g)): 2779; Bottom (B) of microplate Change (%) (Anti-hCG antibody(m)): −61.6%; In solution (S) Change (%) (Anti-hCG antibody(m)): +187%; fluorescence intensity Bottom (B) of microplate After antigen binding (Anti-hCG antibody(m)): 1777; fluorescence intensity Bottom (B) of microplate Before antigen binding (Anti-hCG antibody(m)): 4630; fluorescence intensity In solution (S) After antigen binding (Anti-hCG antibody(m)): 3580; fluorescence intensity In solution (S) Before antigen binding (Anti-hCG antibody(m)): 1248 |
| VYYCAREPTGTGIYFDVWGK [H2, VYYCA REPTG TGIYF DVWGK] | −39.5 | +677% | 22205 | 22205 | 16311 | 2099 | increase | 3110 | 14.8 | −85.2 | 1806 | 122230 | 18128 | 2272 | 58.7 | 2,356% | 63.9 | −36.1 | 18773 | 29367 | net charge [2, 6]: 0.5; fluorescence intensity In solution (S) After antigen binding (Anti-HBsAg antibody(g)): 9136; fluorescence intensity In solution (S) Before antigen binding (Anti-HBsAg antibody(g)): 1784; Bottom (B) of microplate Change (%) (Anti-hCG antibody(m)): −88.5%; In solution (S) Change (%) (Anti-hCG antibody(m)): +416%; fluorescence intensity Bottom (B) of microplate After antigen binding (Anti-hCG antibody(m)): 23320; fluorescence intensity Bottom (B) of microplate Before antigen binding (Anti-hCG antibody(m)): 23320; fluorescence intensity In solution (S) After antigen binding (Anti-hCG antibody(m)): 8545; fluorescence intensity In solution (S) Before antigen binding (Anti-hCG antibody(m)): 1654 |
| VYYCFQGSHVPFTK [L2, VYYCF QGSHV PFTK] | −44.9 | +883% | 11236 | 20394 | 32187 | 3274 | increase | 1480 | 25.5 | −74.5 | 3208 | 12584 | 16135 | 2315 | 72.5 | 2,452% | 35.2 | −64.8 | 9856 | 28002 | net charge [2, 5]: 0.5; net charge [2, 6]: 0.5; fluorescence intensity In solution (S) After antigen binding (Anti-HBsAg antibody(g)): 15359; fluorescence intensity In solution (S) Before antigen binding (Anti-HBsAg antibody(g)): 2279; Bottom (B) of microplate Change (%) (Anti-hCG antibody(m)): −90.7%; In solution (S) Change (%) (Anti-hCG antibody(m)): +456%; fluorescence intensity Bottom (B) of microplate After antigen binding (Anti-hCG antibody(m)): 3072; fluorescence intensity Bottom (B) of microplate Before antigen binding (Anti-hCG antibody(m)): 33156; fluorescence intensity In solution (S) After antigen binding (Anti-hCG antibody(m)): 9402; fluorescence intensity In solution (S) Before antigen binding (Anti-hCG antibody(m)): 1692 |
